# Entries after “also recorded” stand apart in the source; their conditions may differ.
# Biological target: T1, human DHODH(Met30-Arg396) (Homo sapiens, UniProt Q02127)
# T1 construct: N-terminally truncated human DHODH(Met30-Arg396); made in house; host or cells: E. coli BL21(DE3)Gold, pET-19b
# Assay: X-ray co-crystal structure, inhibitor binding mode
# Details: carboxylic acid group, subsite 2 vs subsite 3
# Experimental: The hanging drops were incubated against 0.5 mL reservoir of 0.1 M acetate pH 4.8, 2.4-2.6 M ammonium sulfate and 30% glycerol. The crystallization conditions were screened by variation of pH versus ammonium sulfate concentration using a small grid screen (see FIG. 2):
# The racemic mixtures were used for crystallization experiments.
# Crystals were harvested with pre-mounted loops of size 0.5 mm (Hampton Research) and were flash frozen directly in the cryo stream of the measurement device.
# Data were collected at the beamline BW6 at the DESY Hamburg on a MAR-CCD camera. […] The crystals were maintained at a temperature of 100 K during data collection.
# […] At this stage 5% or 10% (the “test set”) of unique reflections were flagged for cross validation to calculate the free R-factor (Rfree) during the refinement process.
# (§1) The free accessible pdb entry 1D3G.pdb was used as a search model. The ligands brequinar and DDQ as well as all of the water molecules were removed prior to the MR search. The search model included the polypeptide chain of hDHODH(Met30-Arg396), one molecule of orotate, one molecule of the cofactor flavinmononucleotide (FMN) and one acetate molecule which was present under the crystallization conditions.
# (§2) In a first round of refinement the MR model was subjected to rigid body refinement and a slow cooling simulated annealing protocol using a maximum likelihood target to remove model bias (Accelrys Inc. CNX program suite, CNX2002). Additionally, an individual b-factor refinement was carried out using standard CNX protocols.
# After energy minimization the compound was built into the electron density manually. […] After an additional round of model building and water picking using CNX another complete round of refinement was performed.
# as §1
# as §2, with “CNX-protocols.” for “CNX protocols.”
# Both compounds were energy minimized and built into the electron density manually. […] After an additional round of model building and water picking using CNX, another complete round of refinement was performed.
# T1 sequence (Q02127 29-395): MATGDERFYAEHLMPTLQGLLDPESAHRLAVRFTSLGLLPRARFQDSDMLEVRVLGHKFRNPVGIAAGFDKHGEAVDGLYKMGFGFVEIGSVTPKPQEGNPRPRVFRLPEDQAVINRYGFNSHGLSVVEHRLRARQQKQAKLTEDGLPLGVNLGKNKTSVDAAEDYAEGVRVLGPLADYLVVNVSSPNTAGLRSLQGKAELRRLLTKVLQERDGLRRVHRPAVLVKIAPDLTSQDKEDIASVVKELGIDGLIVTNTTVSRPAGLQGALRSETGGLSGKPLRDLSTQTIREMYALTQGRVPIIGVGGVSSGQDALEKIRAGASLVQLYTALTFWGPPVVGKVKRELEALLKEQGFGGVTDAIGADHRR
row,Structure (SMILES),binding mode in crystal structure
1,O=C(O)C1=C(C(=O)Nc2c(F)cc(-c3cccc(OC(F)(F)F)c3)cc2F)CCC1 [Compound 2],both a brequinar-like and a non-brequinar-like binding mode; also recorded: both the brequinar-like and non-brequinar-like binding mode
2,O=C(O)C1=C(C(=O)Nc2c(F)c(F)c(-c3cccc(OC(F)(F)F)c3)c(F)c2F)CCC1 [Compound 3],both the brequinar-like and non-brequinar-like binding mode
3,COc1cccc(-c2ccc(NC(=O)C3CCCC3C(=O)O)c(F)c2)c1 (stereo not drawn) [Compound 6],both a brequinar-like and a non-brequinar-like binding mode
4,O=C(Nc1c(F)cc(-c2cccc(OC(F)(F)F)c2)cc1F)c1ccsc1C(=O)O [Compound 9],pure brequinar-like binding mode
5,COc1cccc(-c2ccc(NC(=O)c3ccsc3C(=O)O)c(F)c2)c1 [Compound 10],both a brequinar-like and a non-brequinar-like binding mode; also recorded: both alternatives

# The remaining lines, values ahead:
row,binding mode in crystal structure,Structure (SMILES)
1,non-brequinar-like,COc1cccc(-c2ccc(NC(=O)C3=C(C(=O)O)CCC3)c(F)c2)c1 [Compound 1]
2,non-brequinar-like,O=C(O)C1=C(C(=O)Nc2ccc(-c3cccc(OC(F)(F)F)c3)cc2F)CCC1 [Compound 4]
3,non-brequinar-like,O=C(Nc1ccc(-c2cccc(OC(F)(F)F)c2)cc1F)C1=CCCC1C(=O)O (stereo not drawn) [Compound 5]
4,non-brequinar-like,COc1cccc(-c2ccc(NC(=O)C3=C(C(=O)O)CCC3O)c(F)c2)c1 (stereo not drawn) [Compound 7]
5,non-brequinar-like,COc1cccc(-c2ccc(NC(=O)C3=C(C(=O)O)C(O)CC3)c(F)c2)c1 (stereo not drawn) [Compound 8]

# Same assay, conditions: racemic mixture used for crystallization
row,enantiomer bound in refined structure,Structure (SMILES)
1,R-form,O=C(Nc1ccc(-c2cccc(OC(F)(F)F)c2)cc1F)C1=CCCC1C(=O)O (stereo not drawn) [Compound 5]
2,R-form,COc1cccc(-c2ccc(NC(=O)C3CCCC3C(=O)O)c(F)c2)c1 (stereo not drawn) [Compound 6]

# Source: patent publication US7247736B2, “Method of identifying inhibitors of DHODH” (4SC AG, priority 2002, dated 2007)
